Data as given in US11649227B2, “Allosteric chromenone inhibitors of phosphoinositide 3-kinase (PI3K) for the treatment of disease” (Petra Pharma Corporation, priority 2020, dated 2023).

Columns and labels:
[1] = target: human full length PIK3CA H1047R mutant (p110α/p85α complex) (Homo sapiens (Human), UniProt P42336, H1047R); test: PI3K-Alpha kinase (PIK3CA) activity, H1047R mutant, Transcreener ADP2 FI assay; details: PI3K-α (PIK3CA) H1047R mutant, biochemical
Procedure: (§1) PI3K-Alpha kinase (PIK3CA) activity, wild-type and H1047R mutant and determining IC50 values for inhibitors
(§2) Recombinant, catalytically active human full length PIK3KA Wild-type and H1047R mutant were purchased as 1:1 complex of N-terminal 6×his tagged p110<(catalytic) and untagged p85<(regulatory subunit) from EMD Millipore Sigma (cat. no. 14-602M and 14-792M, respectively). The enzyme stocks were diluted to 5× stocks in buffer (20 mM HEPES pH 7.4, 100 mM NaCl, 0.5 mM EGTA, 0.01% triton-x-100) just before use. PIP2diC8 (Avanti Polar Lipids Inc., cat. no. 850185) or phosphoinositol-4,5-bisphosphate with phosphoserine (PIP2:PS) membrane (Thermo Fisher Scientific, cat. no. PV5100) was used as lipid substrates. PIP2diC8 lyophilized powder and PIP2:PS (1:19) membrane stock (1 mM in PIP2) were separately dissolved in milliQ water to a concentration of 250 uM and stored in −20° C. 10 mM stocks of compounds were serially diluted (3×) in neat DMSO and stored in a dessicator at room temperature. 5× compound stocks in 25% DMSO were prepared fresh from neat DMSO stocks. Wild-type (WT) and H1047R mutant protein, along with buffer components (except ATP), were incubated with or without compound at 27° C. for 1h. After incubation, the reaction was initiated by the addition of 5 uL of 125 uM ATP. A typical assay mixture (25 uL) comprised 40 mM HEPES buffer, pH 7.4, 25 mM MgCl2, 0.01% v/v triton-X-100, 5% v/v DMSO, 20 mM NaCl, 1-5 nM wt or H1047R, 25 uM ATP, and 50 uM PTP2diC8 or PTP2 in membrane. The reaction was allowed to proceed until about […] (2.5 uM ADP) after which time, 10 uL of reaction mixture was quenched with 25 uL of transcreener reagent (Transcreener ADP2 FI assay kit, BellBrook labs, Cat. No. 3013). The contents were incubated at rt for 1h and fluorescence was measured using a plate reader (Paradigm, Molecular Devices). The same assay was also run at pH 6.0 or 6.4 using MOPS buffer (Fisher BioReagents, CAS 1132-61-2). A calibration curve was generated under identical buffer conditions with varying ADP amounts. Using that, the observed fluorescence was converted to uM ADP. A plot between [ADP] and log[I] yielded the dose-response curves that enabled the calculation of IC50s.

[2] = target: human full length PIK3CA Wild-type (p110α/p85α complex) (Homo sapiens (Human), UniProt P42336); test: PI3K-Alpha kinase (PIK3CA) activity, wild-type, Transcreener ADP2 FI assay; details: PI3K-α (PIK3CA) wild-type, biochemical
Chain of human full length PIK3CA Wild-type (p110α/p85α complex) (P42336 whole entry): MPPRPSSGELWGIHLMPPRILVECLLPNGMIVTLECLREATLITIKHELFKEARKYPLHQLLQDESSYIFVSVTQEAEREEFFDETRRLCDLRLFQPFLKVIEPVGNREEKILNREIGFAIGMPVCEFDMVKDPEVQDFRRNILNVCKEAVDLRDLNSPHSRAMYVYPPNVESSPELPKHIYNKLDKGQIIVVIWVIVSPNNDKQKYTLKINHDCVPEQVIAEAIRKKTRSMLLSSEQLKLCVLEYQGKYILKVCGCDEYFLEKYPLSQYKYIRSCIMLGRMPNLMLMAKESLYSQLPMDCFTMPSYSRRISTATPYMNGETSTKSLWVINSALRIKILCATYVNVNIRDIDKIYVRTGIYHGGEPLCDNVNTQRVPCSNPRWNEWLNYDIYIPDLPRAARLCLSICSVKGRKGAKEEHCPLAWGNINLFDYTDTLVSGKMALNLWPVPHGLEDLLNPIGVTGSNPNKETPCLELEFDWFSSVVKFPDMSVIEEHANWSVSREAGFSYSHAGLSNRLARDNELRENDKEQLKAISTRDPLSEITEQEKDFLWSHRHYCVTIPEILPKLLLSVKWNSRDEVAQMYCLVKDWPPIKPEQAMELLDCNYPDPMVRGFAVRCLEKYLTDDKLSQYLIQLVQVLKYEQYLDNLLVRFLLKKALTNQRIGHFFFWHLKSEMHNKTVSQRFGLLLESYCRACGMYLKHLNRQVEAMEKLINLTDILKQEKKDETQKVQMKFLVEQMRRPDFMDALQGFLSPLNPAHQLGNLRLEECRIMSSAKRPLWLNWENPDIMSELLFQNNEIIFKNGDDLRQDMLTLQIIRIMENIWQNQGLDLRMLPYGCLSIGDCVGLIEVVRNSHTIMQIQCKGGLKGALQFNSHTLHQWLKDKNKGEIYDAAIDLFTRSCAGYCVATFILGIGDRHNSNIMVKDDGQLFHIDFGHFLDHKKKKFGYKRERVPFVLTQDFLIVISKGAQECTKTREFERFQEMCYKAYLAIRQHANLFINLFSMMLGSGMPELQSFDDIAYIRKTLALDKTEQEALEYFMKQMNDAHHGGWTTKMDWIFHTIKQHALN
Chain of human full length PIK3CA Wild-type (p110α/p85α complex) (P27986 whole entry partner): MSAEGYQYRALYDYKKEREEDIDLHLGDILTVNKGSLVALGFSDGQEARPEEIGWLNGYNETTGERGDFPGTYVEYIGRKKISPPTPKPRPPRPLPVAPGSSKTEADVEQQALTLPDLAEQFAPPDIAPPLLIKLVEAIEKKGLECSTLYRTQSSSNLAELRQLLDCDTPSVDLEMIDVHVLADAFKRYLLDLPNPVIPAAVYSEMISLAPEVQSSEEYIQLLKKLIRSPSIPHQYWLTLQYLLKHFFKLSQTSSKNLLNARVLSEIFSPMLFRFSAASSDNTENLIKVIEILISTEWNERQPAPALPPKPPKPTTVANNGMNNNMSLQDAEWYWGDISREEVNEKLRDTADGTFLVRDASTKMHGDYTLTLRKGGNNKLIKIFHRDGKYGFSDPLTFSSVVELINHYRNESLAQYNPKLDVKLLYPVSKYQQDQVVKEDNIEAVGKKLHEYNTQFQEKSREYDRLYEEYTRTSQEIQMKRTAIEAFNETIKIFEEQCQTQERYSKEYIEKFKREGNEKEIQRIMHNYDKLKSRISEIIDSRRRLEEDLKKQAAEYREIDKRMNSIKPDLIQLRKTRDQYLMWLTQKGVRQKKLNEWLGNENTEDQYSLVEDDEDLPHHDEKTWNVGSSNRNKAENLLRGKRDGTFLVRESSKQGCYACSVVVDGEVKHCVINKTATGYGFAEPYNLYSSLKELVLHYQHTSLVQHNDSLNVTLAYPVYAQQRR
Procedure: as §1, §2

Chain of human full length PIK3CA H1047R mutant (p110α/p85α complex) (P42336 whole entry H1047R): as the sequence (P42336 whole entry) above, with H1047R counted along it
Chain of human full length PIK3CA H1047R mutant (p110α/p85α complex) (P27986 whole entry partner): as the sequence (P27986 whole entry partner) above

Cc1c(N2Cc3ccccc3C2)oc2c(C(C)Nc3ccccc3C(=O)O)cc(F)cc2c1=O (single isomer, unassigned) [Example 324, 2-[1-(6-Fluoro-2-isoindolin-2-yl-3-methyl-4-oxo-chromen-8-yl)ethylamino]benzoic acid]
IC50 [1]: < 500 nM | IC50 [2]: < 500 nM

Cc1cc(C(C)Nc2ccccc2C(=O)O)c2oc(N3CCC(C)(C)CC3)c(-c3cnoc3)c(=O)c2c1 (single isomer, unassigned) [Example 53]
IC50 [1]: < 500 nM | IC50 [2]: 500 to 1000 nM

Cc1cc(C(C)Nc2ccccc2C(=O)O)c2oc(N3C4CCCC3C4)cc(=O)c2c1 (single isomer, unassigned; isomer 2) [Example 425, 2-[1-[2-(6-Azabicyclo[3.1.1]heptan-6-yl)-6-methyl-4-oxo-chromen-8-yl]ethylamino]benzoic acid, Isomer 2]
IC50 [1]: < 500 nM | IC50 [2]: 1000 to 5000 nM

Cc1cc(C(C)Nc2ccccc2C(=O)O)c2oc(N3CC4(CCN4c4ccccc4)C3)cc(=O)c2c1 (single isomer, unassigned) [Example 203, 2-[1-[6-Methyl-4-oxo-2-(1-phenyl-1,6-diazaspiro[3.3]heptan-6-yl)chromen-8-yl]ethylamino]benzoic acid 2,2,2-trifluoroacetic acid]
IC50 [1]: < 500 nM | IC50 [2]: 1000 to 5000 nM

CCC1(c2ccccc2)CN(c2cc(=O)c3cc(C)cc(C(C)Nc4ccccc4C(=O)O)c3o2)C1 (single isomer, unassigned) [Example 212, 2-[1-[2-(3-Ethyl-3-phenyl-azetidin-1-yl)-6-methyl-4-oxo-chromen-8-yl]ethylamino]benzoic acid 2,2,2-trifluoroacetic acid]
IC50 [1]: < 500 nM | IC50 [2]: 500 to 1000 nM

Cc1cc(C(C)Nc2ccccc2C(=O)O)c2oc(N3CCCOCC3)cc(=O)c2c1 (stereo not drawn) [Example 151, 2-[1-[6-Methyl-2-(1,4-oxazepan-4-yl)-4-oxo-chromen-8-yl]ethylamino]benzoic acid]
IC50 [1]: 500 to 1000 nM | IC50 [2]: 1000 to 5000 nM

CC(Nc1ccccc1C(=O)O)c1cc(C(F)(F)F)cc2c(=O)cc(N3Cc4ccc(C#N)cc4C3)oc12 (single isomer, unassigned; isomer 2) [Example 338, 2-[1-[2-(5-Cyanoisoindolin-2-yl)-4-oxo-6-(trifluoromethyl)chromen-8-yl]ethylamino]benzoic acid, Isomer 2]
IC50 [1]: < 500 nM | IC50 [2]: < 500 nM

Cc1cc(C(C)Nc2ccccc2C(=O)O)c2oc(N3CCCC4(CCOCC4)C3)cc(=O)c2c1 (stereo not drawn) [Example 76, 2-[1-[6-Methyl-2-(9-oxa-2-azaspiro[5.5]undecan-2-yl)-4-oxo-chromen-8-yl]ethylamino]benzoic acid]
IC50 [1]: 500 to 1000 nM | IC50 [2]: 5000 to 10000 nM

Cc1cc(C(C)Nc2ccccc2C(=O)O)c2oc(N3CCC4(CC3)Cn3nc(C(=O)N(C)C)cc3CO4)cc(=O)c2c1 (stereo not drawn) [Example 107, 2-[1-[2-[2-(Dimethylcarbamoyl)spiro[4,7-dihydropyrazolo[5,1-c][1,4]oxazine-6,4′-piperidine]-1′-yl]-6-methyl-4-oxo-chromen-8-yl]ethylamino]benzoic acid]
IC50 [1]: 1000 to 5000 nM | IC50 [2]: 5000 to 10000 nM

CC(Nc1ccccc1C(=O)O)c1cc(C(F)(F)F)cc2c(=O)cc(N3Cc4ccccc4C3)oc12 (single isomer, unassigned) [Example 342, 2-[1-[2-Isoindolin-2-yl-4-oxo-6-(trifluoromethyl)chromen-8-yl]ethylamino]benzoic acid]
IC50 [1]: < 500 nM | IC50 [2]: < 500 nM

Cc1cc(C(C)Nc2ccccc2C(=O)O)c2oc(N3CC4(C3)CC(F)(F)C4)cc(=O)c2c1 (single isomer, unassigned) [Example 222, 2-[1[2-(6,6-Difluoro-2-azaspiro[3.3]heptan-2-yl)-6-methyl-4-oxo-chromen-8-yl]ethylamino]benzoic acid 2,2,2-trifluoroacetic acid]
IC50 [1]: < 500 nM | IC50 [2]: 1000 to 5000 nM

Cc1cc(C(C)Nc2ccccc2C(=O)O)c2oc(N3CCC(c4ccncc4)C3)cc(=O)c2c1 (single isomer, unassigned) [Example 194, 2-[1-[6-Methyl-4-oxo-2-[3-(4-pyridyl)pyrrolidin-1-yl]chromen-8-yl]ethylamino]benzoic acid 2,2,2-trifluoroacetic acid]
IC50 [1]: 500 to 1000 nM | IC50 [2]: > 10000 nM

Cc1cc(C(C)Nc2cccc3c2C(=O)NC3)c2oc(N3CCC(C)(C)CC3)cc(=O)c2c1 (stereo not drawn) [Example 29, 7-[1-[2-(4,4-Dimethyl-1-piperidyl)-6-methyl-4-oxo-chromen-8-yl]ethylamino]isoindolin-1-one]
IC50 [1]: 1000 to 5000 nM | IC50 [2]: 1000 to 5000 nM

Cc1c(N2CCC3(CC2)CC3)oc2c(C(C)Nc3ccccc3C(=O)O)cc(F)cc2c1=O (single isomer, unassigned) [Example 328, 2-[1-[2-(6-Azaspiro[2.5]octan-6-yl)-6-fluoro-3-methyl-4-oxo-chromen-8-yl]ethylamino]benzoic acid]
IC50 [1]: < 500 nM | IC50 [2]: < 500 nM

COC12CC(C1)N(c1cc(=O)c3cc(C)cc(C(C)Nc4ccccc4C(=O)O)c3o1)C2 (single isomer, unassigned) [Example 111, 2-[1-[2-(4-Methoxy-2-azabicyclo[2.1.1]hexan-2-yl)-6-methyl-4-oxo-chromen-8-yl]ethylamino]benzoic acid]
IC50 [1]: > 10000 nM | IC50 [2]: > 10000 nM

Cc1cc(C(C)Nc2ccccc2C(=O)O)c2oc(N3CC(c4ccccc4)C3)cc(=O)c2c1 (single isomer, unassigned) [Example 236, 2-[1-[6-Methyl-4-oxo-2-(3-phenylazetidin-1-yl)chromen-8-yl]ethylamino]benzoic acid 2,2,2-trifluoroacetic acid]
IC50 [1]: < 500 nM | IC50 [2]: 500 to 1000 nM

Cc1cc(C(C)Nc2ccccc2C(=O)O)c2oc(N3CCOC(c4ccc(S(C)(=O)=O)cc4)C3)cc(=O)c2c1 (stereo not drawn) [Example 85, 2-[1-[6-Methyl-2-[2-(4-methylsulfonylphenyl)morpholin-4-yl]-4-oxo-chromen-8-yl]ethylamino]benzoic acid]
IC50 [1]: 1000 to 5000 nM | IC50 [2]: 1000 to 5000 nM

Cc1cc(C(C)Nc2ccccc2C(=O)O)c2oc(N3Cc4ccc(F)cc4C3)cc(=O)c2c1 (single isomer, unassigned) [Example 123, 2-[1-[2-(5-Fluoroisoindolin-2-yl)-6-methyl-4-oxo-chromen-8-yl]ethylamino]benzoic acid]
IC50 [1]: < 500 nM | IC50 [2]: 500 to 1000 nM

Cc1cc(C(C)Nc2ccccc2S(=O)(=O)O)c2oc(N3CCC(C)(C)CC3)cc(=O)c2c1 (stereo not drawn) [Example 4, 2-[1-[2-(4,4-Dimethyl-1-piperidyl)-6-methyl-4-oxo-chromen-8-yl]ethylamino]benzenesulfonic acid]
IC50 [1]: 1000 to 5000 nM | IC50 [2]: 1000 to 5000 nM

Cc1c(N2CCC(F)(F)CC2)oc2c(C(C)Nc3ccccc3C(=O)O)cc(F)cc2c1=O (single isomer, unassigned) [Example 326, 2-[1-[2-(4,4-Difluoro-1-piperidyl)-6-fluoro-3-methyl-4-oxo-chromen-8-yl]ethylamino]benzoic acid]
IC50 [1]: < 500 nM | IC50 [2]: < 500 nM

Cc1cc(C(C)Nc2ccc(Cl)nc2C(=O)O)c2oc(N3Cc4ccccc4C3)cc(=O)c2c1 (stereo not drawn) [Example 296, 6-Chloro-3-[1-(2-isoindolin-2-yl-6-methyl-4-oxo-chromen-8-yl)ethylamino]pyridine-2-carboxylic acid]
IC50 [1]: 500 to 1000 nM | IC50 [2]: 1000 to 5000 nM
